This note sets out measurements from ChEMBL document CHEMBL3112505, “Discovery of novel indazole derivatives as dual angiotensin II antagonists and partial PPARγ agonists” (Bioorg Med Chem Lett, 2014).

The test system of data set [1] is Rattus norvegicus. As to the kind of experiment: Reduction in free fatty acid level in Zucker fa/fa rat plasma at 1 mg/kg, po qd for 5 days relative to vehicle-treated control control. The format is functional, organism-based. Also on record: dose 1 mg/kg.
The subject of data set [2] is Rattus norvegicus. Briefly: Reduction in insulin level in Zucker fa/fa rat plasma at 1 mg/kg, po qd for 5 days relative to vehicle-treated control control. The data set is classed as functional, organism-based. On the set-up: dose 1 mg/kg.
Data set [3] concerns Rattus norvegicus. Briefly: Toxicity in Zucker fa/fa rat assessed as increase in body weight gain at 1 mg/kg, po qd for 5 days relative to vehicle-treated control control. The data set is classed as organism-based. Also on record: dose 1 mg/kg, route oral. The note with it: in vivo, 120 h.
Data set [4] relates to Rattus norvegicus. As to the kind of experiment: Reduction in triglyceride level in Zucker fa/fa rat plasma at 1 mg/kg, po qd for 5 days relative to vehicle-treated control control. The data set is classed as functional, organism-based. On the set-up: dose 1 mg/kg.
In data set [5] the test system is Rattus norvegicus. As to the kind of experiment: Toxicity in Zucker fa/fa rat assessed as increase in body weight gain at 75 mg/kg, po qd for 5 days relative to vehicle-treated control control. The format is organism-based. On the set-up: dose 75 mg/kg, route oral. The note with it: in vivo, 120 h.
Data set [6] addresses T1, Peroxisome proliferator-activated receptor gamma (Mus musculus, UniProt P37238).
T1 sequence (P37238 whole entry): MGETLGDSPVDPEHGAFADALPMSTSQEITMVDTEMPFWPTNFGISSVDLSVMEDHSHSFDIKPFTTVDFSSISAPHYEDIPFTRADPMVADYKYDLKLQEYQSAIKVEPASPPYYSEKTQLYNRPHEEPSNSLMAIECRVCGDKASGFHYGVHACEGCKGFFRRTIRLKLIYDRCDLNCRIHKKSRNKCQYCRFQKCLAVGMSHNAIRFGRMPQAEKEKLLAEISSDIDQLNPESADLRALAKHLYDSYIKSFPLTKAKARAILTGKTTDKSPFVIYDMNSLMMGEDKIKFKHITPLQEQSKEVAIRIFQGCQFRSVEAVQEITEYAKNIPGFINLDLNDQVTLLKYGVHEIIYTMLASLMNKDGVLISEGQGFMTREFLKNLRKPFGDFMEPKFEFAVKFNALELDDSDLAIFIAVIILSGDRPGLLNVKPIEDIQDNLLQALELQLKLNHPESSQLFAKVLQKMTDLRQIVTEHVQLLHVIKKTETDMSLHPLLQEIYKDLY
Briefly: Partial agonist activity at mouse PPARgamma expressed in CV-1 cells by reporter gene assay. The data set is classed as cell-based.

Data set [7] has as its target T2, Peroxisome proliferator-activated receptor alpha (Mus musculus, UniProt P23204).
T2 sequence (P23204 whole entry): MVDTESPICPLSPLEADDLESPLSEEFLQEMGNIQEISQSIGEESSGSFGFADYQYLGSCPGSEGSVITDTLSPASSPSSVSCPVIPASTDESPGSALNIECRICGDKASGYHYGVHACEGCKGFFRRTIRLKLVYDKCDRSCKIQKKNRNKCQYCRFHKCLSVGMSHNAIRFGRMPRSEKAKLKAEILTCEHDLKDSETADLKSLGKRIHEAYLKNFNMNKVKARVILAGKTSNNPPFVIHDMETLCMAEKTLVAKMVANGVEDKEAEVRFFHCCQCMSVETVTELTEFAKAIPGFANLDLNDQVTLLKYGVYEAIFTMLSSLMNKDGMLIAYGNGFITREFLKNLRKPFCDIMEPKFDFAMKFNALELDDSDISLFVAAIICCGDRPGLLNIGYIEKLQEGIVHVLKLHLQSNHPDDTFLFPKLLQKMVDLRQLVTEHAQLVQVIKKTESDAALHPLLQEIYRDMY
As to the kind of experiment: Agonist activity at mouse PPARalpha expressed in CV-1 cells by reporter gene assay. The format is cell-based.

In data set [8] the test system is Rattus norvegicus. As to the kind of experiment: Reduction in insulin level in Zucker fa/fa rat plasma at 75 mg/kg, po qd for 5 days relative to vehicle-treated control control. Also on record: dose 75 mg/kg. The data set is classed as functional, organism-based.
Data set [9] relates to Rattus norvegicus. As to the kind of experiment: Reduction in triglyceride level in Zucker fa/fa rat plasma at 75 mg/kg, po qd for 5 days relative to vehicle-treated control control. The format is functional, organism-based. On the set-up: dose 75 mg/kg.
The nature of data set [10]: AUC in Zucker fa/fa rat at 5.2 mg/kg, iv. The format is ADME, organism-based. Also on record: dose 5.2 mg/kg, route intravenous. The settings on record: plasma.
For data set [11], the target named is T3, Peroxisome proliferator-activated receptor gamma (Homo sapiens) (UniProt P37231).
T3 sequence (whole entry): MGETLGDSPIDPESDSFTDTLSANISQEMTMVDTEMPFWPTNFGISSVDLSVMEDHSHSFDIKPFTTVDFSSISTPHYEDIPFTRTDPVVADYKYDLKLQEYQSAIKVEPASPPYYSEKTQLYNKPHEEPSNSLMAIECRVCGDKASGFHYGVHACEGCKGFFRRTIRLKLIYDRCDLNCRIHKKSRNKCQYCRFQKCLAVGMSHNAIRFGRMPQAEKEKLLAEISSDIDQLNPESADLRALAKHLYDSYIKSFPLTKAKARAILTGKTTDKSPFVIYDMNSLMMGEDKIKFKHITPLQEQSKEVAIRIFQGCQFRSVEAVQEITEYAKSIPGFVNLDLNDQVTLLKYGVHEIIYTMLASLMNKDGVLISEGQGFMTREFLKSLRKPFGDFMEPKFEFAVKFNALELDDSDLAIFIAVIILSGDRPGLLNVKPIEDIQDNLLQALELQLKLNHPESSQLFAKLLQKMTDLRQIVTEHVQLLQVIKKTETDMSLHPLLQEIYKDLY
Briefly: Partial agonist activity at human PPARgamma expressed in CV-1 cells by reporter gene assay relative to rosiglitazone. The format is cell-based.

Data set [12] can be described thus: Clearance in Zucker fa/fa rat at 5.2 mg/kg, iv. Also on record: dose 5.2 mg/kg, route intravenous. The format is ADME, organism-based. The note with it: in vivo.
Data set [13] has as its system Rattus norvegicus. Briefly: Reduction in free fatty acid level in Zucker fa/fa rat plasma at 75 mg/kg, po qd for 5 days relative to vehicle-treated control control. The format is functional, organism-based. Also on record: dose 75 mg/kg.
In data set [14] the target is T4, Peroxisome proliferator-activated receptor delta (Mus musculus, UniProt P35396).
T4 sequence (P35396 whole entry): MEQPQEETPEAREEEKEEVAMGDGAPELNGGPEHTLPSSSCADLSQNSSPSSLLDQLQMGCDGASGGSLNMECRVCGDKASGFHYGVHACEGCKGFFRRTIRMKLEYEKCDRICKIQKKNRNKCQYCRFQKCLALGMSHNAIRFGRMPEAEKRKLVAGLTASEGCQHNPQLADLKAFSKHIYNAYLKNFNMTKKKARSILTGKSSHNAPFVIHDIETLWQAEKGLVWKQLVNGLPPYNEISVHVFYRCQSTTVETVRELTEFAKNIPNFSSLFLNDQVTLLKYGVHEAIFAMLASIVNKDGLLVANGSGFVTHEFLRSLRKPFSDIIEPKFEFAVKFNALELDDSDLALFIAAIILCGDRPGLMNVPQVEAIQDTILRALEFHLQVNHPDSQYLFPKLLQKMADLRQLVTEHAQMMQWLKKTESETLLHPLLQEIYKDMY
As to the kind of experiment: Agonist activity at mouse PPARdelta expressed in CV-1 cells by reporter gene assay. The data set is classed as cell-based.

Data set [15] is described as follows: Half life in Zucker fa/fa rat at 5.2 mg/kg, iv. The format is ADME, organism-based. Also on record: dose 5.2 mg/kg, route intravenous. The settings on record: in vivo.
For data set [16], the system named is Rattus norvegicus. Briefly: Antihypertensive activity in dosed SHR NCrl rat assessed as decrease in diastolic blood pressure at 10 mg/kg, po administered daily for 12 days relative to vehicle-treated control control. The format is functional, organism-based. Also on record: dose 10 mg/kg. The note with it: Artery.
A short description of data set [17]: Volume of distribution at steady state in Zucker fa/fa rat 5.2 mg/kg, iv. The data set is classed as ADME, organism-based. On the set-up: dose 5.2 mg/kg, route intravenous. The settings on record: in vivo, read-out: Vdss.
Data set [18] concerns Rattus norvegicus. Briefly: Antihypertensive activity in dosed SHR NCrl rat assessed as decrease in systolic blood pressure at 10 mg/kg, po administered daily for 12 days relative to baseline control. The data set is classed as functional, organism-based. On the set-up: dose 10 mg/kg. The settings on record: Artery.
Data set [19] has as its system Rattus norvegicus. As to the kind of experiment: Antihypertensive activity in dosed SHR NCrl rat assessed as decrease in diastolic blood pressure at 10 mg/kg, po administered daily for 12 days relative to baseline control. The data set is classed as functional, organism-based. Also on record: dose 10 mg/kg. The settings on record: Artery.
Data set [20] addresses T5, Peroxisome proliferator-activated receptor gamma (Homo sapiens, UniProt P37231).
T5 sequence (P37231 whole entry): T3 sequence (whole entry)
As to the kind of experiment: Partial agonist activity at human PPARgamma expressed in CV-1 cells by reporter gene assay. The format is cell-based.

Data set [21] has as its target T6, Type-1 angiotensin II receptor (Homo sapiens, UniProt P30556).
T6 sequence (P30556 whole entry): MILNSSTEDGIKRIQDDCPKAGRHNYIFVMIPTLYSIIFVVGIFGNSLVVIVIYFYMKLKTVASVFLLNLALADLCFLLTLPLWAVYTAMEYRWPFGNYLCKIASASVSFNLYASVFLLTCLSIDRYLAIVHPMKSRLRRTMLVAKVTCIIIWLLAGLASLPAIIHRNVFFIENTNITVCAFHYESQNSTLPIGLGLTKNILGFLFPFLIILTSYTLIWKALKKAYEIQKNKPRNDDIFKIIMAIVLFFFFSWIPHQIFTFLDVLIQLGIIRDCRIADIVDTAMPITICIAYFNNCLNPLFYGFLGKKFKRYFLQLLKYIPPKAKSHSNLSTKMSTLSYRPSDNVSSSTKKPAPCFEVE
Briefly: Antagonist activity at human AT1 receptor expressed in CHO cells measured after overnight incubation by luciferase reporter gene assay. The data set is classed as cell-based.

The nature of data set [22]: AUC in Zucker fa/fa rat at 30 mg/kg, po. The format is ADME, organism-based. Also on record: dose 30 mg/kg, route oral. The note with it: plasma.
Data set [23] has as its system Rattus norvegicus. As to the kind of experiment: Antihypertensive activity in dosed SHR NCrl rat assessed as decrease in systolic blood pressure at 10 mg/kg, po administered daily for 12 days relative to vehicle-treated control control. The format is functional, organism-based. Also on record: dose 10 mg/kg. The settings on record: Artery.
Data set [24] can be described thus: Oral bioavailability in Zucker fa/fa rat at 30 mg/kg. The note with it: in vivo. The format is ADME, organism-based.
Data set [25] has as its target T7, Peroxisome proliferator-activated receptor gamma (Mus musculus) (UniProt P37238).
T7 sequence (whole entry): T1 sequence (P37238 whole entry)
Briefly: Partial agonist activity at mouse PPARgamma expressed in CV-1 cells by reporter gene assay relative to rosiglitazone. The data set is classed as cell-based.

Activity calls are given as the source filed them. The rule behind the calls is not given here.

Consider `CN(CCOc1ccc(C[C@H](Nc2ccccc2C(=O)c2ccccc2)C(=O)O)cc1)c1ccccn1`, for which the result with Rattus norvegicus [1], with Rattus norvegicus [2] and in the data set on Rattus norvegicus [4] was Active. Further, the Activity result in the data set with Rattus norvegicus [3] is on record as “Toxic”; in the data set on Rattus norvegicus [5], “Non-toxic”.

On to `CCCCn1c(-c2ccc3nn(CCC)c(Cc4ccc(-c5ccccc5-c5nn[nH]n5)cc4)c3c2)nc2ccccc21`, for which the half-maximal effective concentration (EC50) is 270 nM in data set [6], over 10000 nM in data set [7], over 10000 nM in data set [14] and 250 nM in data set [20]. In addition, the result in the data set with Rattus norvegicus [8], in the data set on Rattus norvegicus [9], in the data set on Rattus norvegicus [13], with Rattus norvegicus [16], in the data set with Rattus norvegicus [18] and with Rattus norvegicus [19] was Active. The outcome with Rattus norvegicus [23] was Active. For the same compound, the AUC is 8010 ng·h/mL in data set [10] and 36300 ng·h/mL in [22]. The max activation in [11] was 40%; in data set [25] it was 18%. The same compound yielded a clearance in data set [12] of 11 mL/min/kg. The compound also gave a half-life in [15] of 14 h. Besides, the Vd in [17] was 7.8 L/kg. In addition, in data set [21], the midpoint of inhibition, the IC50, lay at 6 nM. The compound also registered a bioavailability in data set [24] of 78%.
